Patent EP1099438A2, “Use of APO B secretion/MTP inhibitors” (Pfizer Products Inc., priority 1999, dated 2001)

System: food intake
Assay: food intake reduction determination protocol in dogs
Assay type: in vivo
Conditions: male beagles, oral gavage, dosing solution 0.5 mg/mL at 1 mL per kg body weight, single dose on Days 0 and 5-12; 24 hour food consumption versus amount consumed prior to Day 0
Description: Healthy, young adult (1-2 years of age) male beagles (Marshall Farms, North Rose, New York, NY 14516) weighing 11.45 - 12.45 kg at the start of the treatment period were employed as test subjects. The animals were housed individually in standard caging meeting or exceeding the USDA regulations (U.S. Department of Agriculture, Animal Welfare, Final Rules. 9 C.F.R. Parts 1-3, 1995).
The test compound was provided as a water-soluble powder. The dosing solution, administered by oral gavage, was provided employing a 0.025 M citrate buffer (approx. pH = 3) prepared using anhydrous citric acid (0.4 g/mL) and anhydrous sodium citrate (0.1 g/mL) as the test vehicle. The dosing solution was prepared at 0.5 mg/mL activity so that 1 mL was delivered per kg body weight. Following a fourteen day acclimation period (designated as Days -14 to -1), during which time the test animals were evaluated for certain criteria including determination of body weight and physical examinations, a sixteen day evaluation study was effected.
The study consisted of one group of animals containing five dogs. On Days 0 and 5-12, each dog received the dosing solution administered as a single dose at Time 0 on each dosing day via a feeding tube. […]
Reduction in food intake was quantitated by weighing individual food bowls each day prior to feeding and at the end of each 24 hour consumption period. […]

SMILES | reduced food intake in dogs
CCCCN1CCc2cc(NC(=O)c3ccccc3-c3ccc(C(F)(F)F)cc3)ccc2C1 [4'-trifluoromethyl-biphenyl-2-carboxylic acid-(2-butyl-1,2,3,4-tetrahydroisoquinolin-6-yl)-amide] | 30%
CC(=O)NCCN1CCc2cc(NC(=O)c3ccccc3-c3ccc(C(F)(F)F)cc3)ccc2C1 [4'-trifluoromethyl-biphenyl-2-carboxylic acid-[2-(2-acetylaminoethyl)-1,2,3,4-tetrahydroisoquinolin-6-yl amide] | 58%
